Data as given in ChEMBL document CHEMBL3044572, “Discovery of 2-(4-cyano-3-trifluoromethylphenyl amino)-4-(4-quinazolinyloxy)-6-piperazinyl(piperidinyl)-s-triazines as potential antibacterial agents” (2012).
In brackets after ≈: the same amount, converted by molar mass. Activity calls are given as the source filed them. No cut-off for these calls is given here.

Experiments:
[1] = system: Pseudomonas aeruginosa; assay: Antimicrobial activity against Pseudomonas aeruginosa MTCC 741 by agar streak dilution method; assay type: functional
[2] = system: Shigella flexneri; assay: Antimicrobial activity against Shigella flexneri MTCC 1457 by paper disk diffusion method; assay type: functional
[3] = system: Pseudomonas aeruginosa; assay: Antimicrobial activity against Pseudomonas aeruginosa MTCC 741 at 100 ug/ml by paper disk diffusion method; assay type: functional, organism-based
[4] = system: Salmonella typhi; assay: Antimicrobial activity against Salmonella enterica subsp. enterica serovar Typhi MTCC 733 by paper disk diffusion method; assay type: functional
[5] = system: Staphylococcus aureus; assay: Antimicrobial activity against Staphylococcus aureus MTCC 96 by paper-disk diffusion method; assay type: functional
[6] = system: Mycobacterium tuberculosis; assay: Antimicrobial activity against Mycobacterium tuberculosis H37Rv by BACTEC MGIT method; assay type: functional; details: for MIC: Mycobacterium tuberculosis, H37Rv
[7] = system: Candida albicans; assay: Antimicrobial activity against Candida albicans MTCC 183 by paper-disk diffusion method; assay type: functional
[8] = system: Klebsiella pneumoniae; assay: Antimicrobial activity against Klebsiella pneumoniae MTCC 109 by agar streak dilution method; assay type: functional
[9] = system: Aspergillus fumigatus; assay: Antimicrobial activity against Aspergillus fumigatus MTCC 343 by paper-disk diffusion method; assay type: functional
[10] = system: Aspergillus clavatus; assay: Antimicrobial activity against Aspergillus clavatus MTCC 1323 by agar streak dilution method; assay type: functional
[11] = system: Candida albicans; assay: Antimicrobial activity against Candida albicans MTCC 183 by agar streak dilution method; assay type: functional
[12] = system: Bacillus cereus; assay: Antimicrobial activity against Bacillus cereus MTCC 619 by agar streak dilution method; assay type: functional
[13] = system: Shigella flexneri; assay: Antimicrobial activity against Shigella flexneri MTCC 1457 by agar streak dilution method; assay type: functional
[14] = system: Aspergillus fumigatus; assay: Antimicrobial activity against Aspergillus fumigatus MTCC 343 by agar streak dilution method; assay type: functional
[15] = system: Salmonella typhi; assay: Antimicrobial activity against Salmonella enterica subsp. enterica serovar Typhi MTCC 733 by agar streak dilution method; assay type: functional
[16] = system: Bacillus cereus; assay: Antimicrobial activity against Bacillus cereus MTCC 619 by paper disk diffusion method; assay type: functional
[17] = system: Aspergillus niger; assay: Antimicrobial activity against Aspergillus niger MTCC 282 by paper-disk diffusion method; assay type: functional
[18] = system: Mycobacterium tuberculosis; assay: Antimicrobial activity against Mycobacterium tuberculosis H37Rv by Lowenstein and Jensen method; assay type: functional; details: for MIC: Mycobacterium tuberculosis, H37Rv
[19] = system: Aspergillus niger; assay: Antimicrobial activity against Aspergillus niger MTCC 282 by agar streak dilution method; assay type: functional
[20] = system: Proteus vulgaris; assay: Antimicrobial activity against Proteus vulgaris MTCC 1771 by agar streak dilution method; assay type: functional
[21] = system: Escherichia coli; assay: Antimicrobial activity against Escherichia coli MTCC 739 by paper disk diffusion method; assay type: functional
[22] = system: Escherichia coli; assay: Antimicrobial activity against Escherichia coli MTCC 739 by agar streak dilution method; assay type: functional
[23] = system: Proteus vulgaris; assay: Antimicrobial activity against Proteus vulgaris MTCC 1771 by paper disk diffusion method; assay type: functional
[24] = system: Staphylococcus aureus; assay: Antimicrobial activity against Staphylococcus aureus MTCC 96 by agar streak dilution method; assay type: functional
[25] = system: Klebsiella pneumoniae; assay: Antimicrobial activity against Klebsiella pneumoniae MTCC 109 by paper disk diffusion method; assay type: functional
[26] = system: Pseudomonas aeruginosa; assay: Antimicrobial activity against Pseudomonas aeruginosa MTCC 741 by paper disk diffusion method; assay type: functional
[27] = system: Aspergillus clavatus; assay: Antimicrobial activity against Aspergillus clavatus MTCC 1323 by paper disk diffusion method; assay type: functional
[28] = system: Mycobacterium tuberculosis; assay: Antimicrobial activity against Mycobacterium tuberculosis H37Rv at 100 ug/ml by BACTEC MGIT method; assay type: functional, organism-based

SMILES	MIC [1]	inhibition zone (IZ) [2]	inhibition zone (IZ) [3]	inhibition zone (IZ) [4]	inhibition zone (IZ) [5]	MIC [6]	inhibition zone (IZ) [7]	MIC [8]	inhibition zone (IZ) [9]	MIC [11]	MIC [12]	MIC [13]	MIC [15]	inhibition zone (IZ) [17]	MIC [19]	MIC [20]	inhibition zone (IZ) [21]	MIC [24]	inhibition zone (IZ) [25]	inhibition zone (IZ) [26]	also measured
N#Cc1ccc(Nc2nc(Oc3ncnc4ccccc34)nc(N3CCN(c4cccc(C(F)(F)F)c4)CC3)n2)cc1C(F)(F)F	6.25 µg/mL (≈ 9.8 µM)	27 mm	inactive	25 mm	29 mm	6.25 µg/mL (≈ 9.8 µM)	27 mm	6.25 µg/mL (≈ 9.8 µM)	24 mm	6.25 µg/mL (≈ 9.8 µM)	3.12 µg/mL (≈ 4.89 µM)	12.5 µg/mL (≈ 19.6 µM)	25 µg/mL (≈ 39.2 µM)	26 mm	3.12 µg/mL (≈ 4.89 µM)	6.25 µg/mL (≈ 9.8 µM)	25 mm	3.12 µg/mL (≈ 4.89 µM)	25 mm	28 mm	inhibition (INH) [6]: 99%; MIC [10]: 6.25 µg/mL (≈ 9.8 µM); MIC [14]: 12.5 µg/mL (≈ 19.6 µM); inhibition zone (IZ) [16]: 28 mm; inhibition (percent inhibition) [18]: 99%; MIC [18]: 6.25 µg/mL (≈ 9.8 µM); MIC [22]: 25 µg/mL (≈ 39.2 µM); inhibition zone (IZ) [23]: 26 mm; inhibition zone (IZ) [27]: 25 mm
CC1CC(C)CN(c2nc(Nc3ccc(C#N)c(C(F)(F)F)c3)nc(Oc3ncnc4ccccc34)n2)C1 (centres undefined)	12.5 µg/mL (≈ 24 µM)	22 mm	inactive	26 mm	27 mm	6.25 µg/mL (≈ 12 µM)	24 mm	6.25 µg/mL (≈ 12 µM)	23 mm	25 µg/mL (≈ 48 µM)	12.5 µg/mL (≈ 24 µM)	100 µg/mL (≈ 192 µM)	25 µg/mL (≈ 48 µM)	22 mm	25 µg/mL (≈ 48 µM)	6.25 µg/mL (≈ 12 µM)	27 mm	6.25 µg/mL (≈ 12 µM)	26 mm	27 mm	inhibition (INH) [6]: 99%; MIC [10]: 6.25 µg/mL (≈ 12 µM); MIC [14]: 25 µg/mL (≈ 48 µM); inhibition zone (IZ) [16]: 26 mm; inhibition (percent inhibition) [18]: 99%; MIC [18]: 6.25 µg/mL (≈ 12 µM); MIC [22]: 6.25 µg/mL (≈ 12 µM); inhibition zone (IZ) [23]: 26 mm; inhibition zone (IZ) [27]: 25 mm
O=C(O)c1cn(C2CC2)c2cc(N3CCNCC3)c(F)cc2c1=O [CIPROFLOXACIN]		32 mm	inactive	30 mm	30 mm		33 mm		29 mm	1.56 µg/mL (≈ 4.71 µM)	0.39 µg/mL (≈ 1.18 µM)	1.56 µg/mL (≈ 4.71 µM)	0.39 µg/mL (≈ 1.18 µM)	30 mm	1.56 µg/mL (≈ 4.71 µM)	0.39 µg/mL (≈ 1.18 µM)	32 mm	1.56 µg/mL (≈ 4.71 µM)	33 mm	33 mm	
NNC(=O)c1ccncc1 [ISONIAZID]						0.2 µg/mL (≈ 1.46 µM)															
N#Cc1ccc(Nc2nc(Oc3ncnc4ccccc34)nc(N3CCN(c4cccc(Cl)c4Cl)CC3)n2)cc1C(F)(F)F	12.5 µg/mL (≈ 19.6 µM)	26 mm	inactive	26 mm	29 mm	6.25 µg/mL (≈ 9.79 µM)	27 mm	50 µg/mL (≈ 78.3 µM)	23 mm	6.25 µg/mL (≈ 9.79 µM)	6.25 µg/mL (≈ 9.79 µM)	12.5 µg/mL (≈ 19.6 µM)	12.5 µg/mL (≈ 19.6 µM)	25 mm	6.25 µg/mL (≈ 9.79 µM)	6.25 µg/mL (≈ 9.79 µM)	24 mm	3.12 µg/mL (≈ 4.89 µM)	24 mm	24 mm	inhibition (INH) [6]: 99%; MIC [10]: 25 µg/mL (≈ 39.2 µM); MIC [14]: 25 µg/mL (≈ 39.2 µM); inhibition zone (IZ) [16]: 25 mm; inhibition (percent inhibition) [18]: 99%; MIC [18]: 6.25 µg/mL (≈ 9.79 µM); MIC [22]: 50 µg/mL (≈ 78.3 µM); inhibition zone (IZ) [23]: 26 mm; inhibition zone (IZ) [27]: 23 mm
N#Cc1ccc(Nc2nc(Oc3ncnc4ccccc34)nc(N3CCN(c4ccccc4F)CC3)n2)cc1C(F)(F)F	25 µg/mL (≈ 42.6 µM)	25 mm	inactive	26 mm	27 mm	> 6.25 µg/mL	26 mm	25 µg/mL (≈ 42.6 µM)	22 mm	12.5 µg/mL (≈ 21.3 µM)	6.25 µg/mL (≈ 10.6 µM)	25 µg/mL (≈ 42.6 µM)	12.5 µg/mL (≈ 21.3 µM)	26 mm	3.12 µg/mL (≈ 5.31 µM)	25 µg/mL (≈ 42.6 µM)	24 mm	6.25 µg/mL (≈ 10.6 µM)	24 mm	25 mm	inhibition [28]: inactive; MIC [10]: 25 µg/mL (≈ 42.6 µM); MIC [14]: 25 µg/mL (≈ 42.6 µM); inhibition zone (IZ) [16]: 26 mm; inhibition (percent inhibition) [18]: 98%; MIC [18]: 12.5 µg/mL (≈ 21.3 µM); MIC [22]: 50 µg/mL (≈ 85.1 µM); inhibition zone (IZ) [23]: 23 mm; inhibition zone (IZ) [27]: 24 mm
